We go through 4 compounds from patent US4277479A, “Tetrazolylalkoxycarbostyril derivatives and pharmaceutical compositions containing them” (Otsuka Pharmaceutical Co., Ltd., priority 1978, dated 1981).

Structures are written as SMILES.

This test concerns the target T1, cyclic AMP phosphodiesterase (Oryctolagus cuniculus, UniProt G1ST54).
T1 construct: the supernatant was collected to use it as a crude enzyme solution; from tissue; host or cells: rabbit platelets (from platelet-rich plasma)
T1 sequence (G1ST54 1-1128): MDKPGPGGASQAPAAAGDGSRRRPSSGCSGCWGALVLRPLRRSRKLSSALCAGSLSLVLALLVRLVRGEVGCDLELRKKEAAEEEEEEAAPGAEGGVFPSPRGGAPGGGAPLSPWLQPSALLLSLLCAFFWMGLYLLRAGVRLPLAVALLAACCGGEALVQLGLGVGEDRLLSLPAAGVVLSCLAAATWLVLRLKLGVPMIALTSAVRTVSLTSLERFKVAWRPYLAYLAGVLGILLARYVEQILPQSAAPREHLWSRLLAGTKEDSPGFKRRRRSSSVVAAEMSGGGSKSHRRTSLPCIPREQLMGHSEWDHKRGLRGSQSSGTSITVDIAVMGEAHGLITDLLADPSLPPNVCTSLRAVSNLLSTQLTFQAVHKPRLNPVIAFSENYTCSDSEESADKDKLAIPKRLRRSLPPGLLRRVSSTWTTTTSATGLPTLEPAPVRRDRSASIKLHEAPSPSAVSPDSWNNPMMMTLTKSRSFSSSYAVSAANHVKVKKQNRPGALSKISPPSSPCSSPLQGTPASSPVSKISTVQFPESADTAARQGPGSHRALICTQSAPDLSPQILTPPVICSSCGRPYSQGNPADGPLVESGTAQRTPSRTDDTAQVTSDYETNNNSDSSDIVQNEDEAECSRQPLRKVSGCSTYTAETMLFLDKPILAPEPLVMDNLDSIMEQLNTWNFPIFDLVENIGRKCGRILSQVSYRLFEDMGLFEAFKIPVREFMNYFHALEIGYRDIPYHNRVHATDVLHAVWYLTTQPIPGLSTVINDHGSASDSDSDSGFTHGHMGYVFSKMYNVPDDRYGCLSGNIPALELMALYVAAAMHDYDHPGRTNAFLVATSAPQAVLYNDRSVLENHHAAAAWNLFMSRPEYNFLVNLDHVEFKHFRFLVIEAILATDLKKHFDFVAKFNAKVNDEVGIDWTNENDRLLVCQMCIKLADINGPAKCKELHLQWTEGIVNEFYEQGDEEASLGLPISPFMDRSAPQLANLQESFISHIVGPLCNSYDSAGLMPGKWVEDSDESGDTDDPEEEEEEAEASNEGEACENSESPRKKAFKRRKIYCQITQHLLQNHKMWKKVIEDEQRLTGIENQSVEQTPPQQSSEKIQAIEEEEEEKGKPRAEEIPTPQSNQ
Nature of the test: Obstructive action against cyclic AMP phosphodiesterase. The class given is biochemical, rabbit. As to conditions: 0.4 μmol cyclic AMP, read-out: Phosphodiesterase obstruction rate; for inhibition at 1 µM: concentration of test compound solution 10^-6 mole; for inhibition: concentration of test compound solution 10^-7 mole; for inhibition at 0.01 µM: concentration of test compound solution 10^-8 mole; for inhibition at 0.001 µM: concentration of test compound solution 10^-9 mole. As to the method:
(Test of obstructive action against cyclic AMP phosphodiesterase)
The obstructive action against cyclic AMP phosphodiesterase was measured according to the activity measuring method described in "Biochimica et Biophysica Acta", Vol. 429, pp. 485-497 (1976) and "Biochemical Medicine", Vol. 10, pp. 301-311 (1974).
That is, for determining the obstructive activity against cyclic AMP phosphodiesterase, 10 ml of a solution obtained by adding 1 mmol of MgCl2 into 50 mmol of tris-hydrochloric acid buffer with pH 7.4 was added to the platelets obtained by further centrifuging the above-said rabbit PRP at 3,000 r.p.m. for 10 minutes, and the suspended platelets were ground by a Teflon potter type homogenizer. This was followed by two times of freezing and thawing treatment and 300-second fracturing with 200 watt supersonic waves. After additional 60-minute centrifugation with 100,000 g, the supernatant was collected to use it as a crude enzyme solution.
10 Milliliters of this crude buffer solution was added to a 1.5×20 cm DEAE-cellulose column which has previously been buffered with 50 mmol of tris-acetate buffer (pH 6.0), followed by washing and elution with 30 ml of 50 mmol tris-acetate buffer, and this buffer solution was subjected to linear gradient elution with 0 to 1 moles of sodium acetate-tris-acetate buffer. The flow rate was 0.5 ml/min, and 5 ml of each fraction was batched out. […] This fraction was used as cyclic AMP phosphodiesterase.
0.1 Milliliter of an aqueous solution of each test compound of a specified concentration was mixed with 40 mmol of tris-hydrochloric acid buffer (pH 8.0, containing 50 μg of cow serum albumin and 4 mmol of MgCl2) containing predetermined 0.4 μmol of cyclic AMP (tritium cyclic AMP), and 0.2 ml of this mixed solution was used as a substrate solution.
0.2 Milliliter of the above-prepared cyclic AMP phosphodiesterase of a predetermined concentration was added to said substrate solution and the mixture was reacted at 30° C. for 20 minutes, producing tritium 5'-AMP from the tritium cyclic AMP.
The reaction system was then immersed in boiling water for 2 minutes to stop the reaction, and then this reaction solution was cooled in ice water and, for converting the produced tritium 5'-AMP into tritium adenosine, the solution was added with 0.05 ml (1 mg/ml) of snake poison as 5'-nucleotidase and reacted at 30° C. for 10 minutes. The whole amount of this reaction solutions was then added to a cation exchange resin (AG 500 W×4, 200-400 meshes, manufactured by Bio-Rad Co., column size: 0.5×1.5 cm), and the produced tritium anodesine alone was allowed to combine, washed with 6 ml of distilled water and eluted with 1.5 ml of 3 N-ammonia water. The whole quantity of the elutant was added with 10 ml of a triton-toluene type scintillator and the produced tritium adenosine was measured by a liquid scintillation counter to determine the phosphodiesterase activity.
In this way, the phosphodiesterase activation value (Vs) of the test compounds of the respective concentrations was determined, and the phosphodiesterase obstruction rate (%) was determined from said activation value (Vs) and control value (Vc) (obtained from water not containing any test compound) from the following formula: [formula]

On to `O=c1ccc2cc(OCCCc3nnnn3C3CCCCC3)ccc2[nH]1` [Compound 1, 6-[3-(1-Cyclohexyltetrazol-5-yl)propoxy]carbostyril], for which the inhibition at 1 µM came to 92.9%, the inhibition came to 83.8%, the inhibition at 0.01 µM was found to be 58.4% and the inhibition at 0.001 µM stood at 44.7%.

As to `O=c1ccc2cc(OCCCc3nnnn3CC3CCCCC3)ccc2[nH]1` [Compound 5, 6-[3-(1-Cyclohexylmethyltetrazol-5-yl)propoxy]carbostyril], the inhibition at 1 µM amounted to 89.9%, the inhibition is 73.4%, the inhibition at 0.01 µM was 55.2% and the inhibition at 0.001 µM was found to be 38.6%.

With `O=c1ccc2cc(OCCCc3nnnn3C3CCCCCCC3)ccc2[nH]1` [Compound 6, 6-[3-(1-Cyclooctyltetrazol-5-yl)propoxy]carbostyril], the inhibition at 1 µM was found to be 88.4%, the inhibition came to 79.6%, the inhibition at 0.01 µM turned out to be 57.4% and the inhibition at 0.001 µM worked out at 36.5%.

Consider `O=c1ccc2cc(OCCCCc3nnnn3C3CCCCC3)ccc2[nH]1` [Compound 7, 6-[4-(1-Cyclohexyltetrazol-5-yl)butoxy]carbostyril], for which the inhibition stood at 98.4%, the inhibition at 0.01 µM came out at 68.3% and the inhibition at 0.001 µM was determined as 50.6%.
